Test results: patent US20240390369A1, “METHODS FOR DETERMINING RESPONSIVENESS TO TYK2 INHIBITORS” (Bristol-Myers Squibb Company, priority 2021, published 2024)

Test system: patients with psoriatic arthritis
Assay: Phase 2 trial in psoriatic arthritis: PASI75 response at week 16
Assay type: in vivo, human
Conditions: for Odds Ratio for PASI75 response / Odds Ratio (OR) for PASI75 response / Interaction Term for PASI75 response (ratio of odds ratios): week 16
Method: In a double-blind Phase 2 trial, 203 patients with psoriatic arthritis were randomized into three groups: deucravacitinib 6 mg once daily (N=70), deucravacitinib 12 mg once daily (N=67), or placebo (N=66). All subjects had active psoriatic arthritis according to the Classification Criteria for Psoriatic Arthritis (CASPAR); for active disease, these criteria required ≥3 tender joint count, ≥3 swollen joint count, and a C-reactive protein level above 3 mg/L. Other inclusion criteria included the following: presence of at least one plaque psoriasis lesion, and prior treatment failure with a non-biologic disease modifying anti-rheumatic drug, a non-steroidal anti-inflammatory drug, or a steroid. With respect to treatment history, approximately 70% of subjects had not received prior treatment with a biologic and were biologic naïve, while up to 30% of subjects had failed or had been intolerant to one TNF-inhibitor (TNF=Tumor necrosis factor, also known as TNFα). Randomization was stratified by prior TNF-inhibitor use (experienced/naïve) and body weight (<90 kg and ≥90 kg).
Clinical measures included the Psoriasis […] (PASI) score for skin psoriasis, American College of Rheumatology 20 (ACR20) response, Psoriatic Arthritis Disease Activity Score (PASDAS), Health Assessment Questionnaire-Disability Index (HAQ-DI), and Disease Activity Score 28 CRP (DAS28). To evaluate the predictive value of different protein measurements for the clinical response to deucravacitinib, baseline protein concentrations for responders and non-responders, as defined by ACR20 or PASI75 at week 16, were compared for each arm (placebo, 6 mg deucravacitinib once-daily, and 12 mg deucravacitinib once-daily).
In addition, a logistic regression model was fit, to determine whether baseline disease score (dichotomized by the median baseline score, into baseline score high and baseline score low groups) was associated with response status. The model generated an odds ratio for each dosed arm versus placebo, in baseline score high and baseline score low groups.
Boxplots for baseline protein level by response were generated with a horizontal line indicating the median protein level at baseline. For each treatment arm, a two-sample t-test was performed to test whether mean baseline serum protein level was different in responders versus non-responders. A Wilcoxon rank sum test (Mann-Whitney U test) was also performed to evaluate the difference in median serum protein level between responders and non-responders. Further, barplots of ACR20 and PASI75 response rate at week 16 for each treatment arm were generated for all subjects (protein level high and protein level low subjects, dichotomized according to median baseline level). Line plots of ACR20 and PASI75 response rate over time for each treatment arm were generated for protein level high and protein level low groups. Logistic regression models were also fit to evaluate associations between baseline protein levels and clinical outcome.
For certain analyses described herein, patients were dichotomized by median values (e.g., of the proteins listed above or other measures) into “high” and “low” groups, such that the high group had values above the median and the low group had values less than or equal to the median.
In addition, logistic regression models were fit for response measures ACR20 and PASI75, to generate the odds ratio of each of the deucravacitinib treatment arms versus placebo, in BD2-high and BD2-low groups. The following logistic regression models were used: • For ACR20 response status: ACR20 (Y/N)=treatment arm+BD2 group+treatment arm*BD2 group+TNF-inhibitor use+baseline weight (continuous). • For PASI75 response status: PASI75 (Y/N)=treatment arm+BD2 group+treatment arm*BD2 group+TNF-inhibitor use+baseline weight (continuous). […]

[2H]C([2H])([2H])NC(=O)c1nnc(NC(=O)C2CC2)cc1Nc1cccc(-c2ncn(C)n2)c1OC [deucravacitinib, 6-(cyclopropanecarboxamido)-4-((2-methoxy-3-(1-methyl-1H-1,2,4-triazol-3-yl)phenyl)amino)-N-(methyl-d3)pyridazine-3-carboxamide]
Odds Ratio, PASI75 response status (CRP-high-PASI-high, 12 mg QD vs placebo): 17.226
Odds Ratio, PASI75 response status (CRP-high-PASI-low, 6 mg QD vs placebo): 0.710
Odds Ratio, PASI75 response status (CRP-high-PASI-low, 12 mg QD vs placebo): 5.115
Odds Ratio, PASI75 response status (CRP-high, 6 mg QD vs placebo, adjusted for baseline PASI score): 3.82
Odds Ratio, PASI75 response status (CRP-high, 12 mg QD vs placebo, adjusted for baseline PASI score): 12.05
Odds Ratio, PASI75 response status (CRP-low-PASI-high, 6 mg QD vs placebo): 2.470
Odds Ratio, PASI75 response status (CRP-low-PASI-high, 12 mg QD vs placebo): 16.368
Odds Ratio, PASI75 response status (CRP-low-PASI-low, 6 mg QD vs placebo): 1.866
Odds Ratio, PASI75 response status (CRP-low-PASI-low, 12 mg QD vs placebo): 1.197
Odds Ratio, PASI75 response status (CRP-low, 6 mg QD vs placebo, adjusted for baseline PASI score): 2.29
Odds Ratio, PASI75 response status (CRP-low, 12 mg QD vs placebo, adjusted for baseline PASI score): 3.79
Odds Ratio for PASI75 response (IL-17A high (baseline above median 0.575 ng/L), 6 mg QD vs placebo): 12.643
Odds Ratio for PASI75 response (IL-17A high (baseline above median 0.575 ng/L), 12 mg QD vs placebo): 20.916
PASI75 response rate at week 16 (IL-17A high group, 6 mg QD and 12 mg QD vs placebo (FIG. 21)): higher in both 6 mg QD and 12 mg QD treatment arms compared to placebo
Odds Ratio, PASI75 response status (IL-17A high-PASI high, 6 mg QD vs placebo): 12.355
Odds Ratio, PASI75 response status (IL-17A high-PASI high, 12 mg QD vs placebo): 15.937
Odds Ratio, PASI75 response status (IL-17A high-PASI low, 6 mg QD vs placebo): 13.247
Odds Ratio, PASI75 response status (IL-17A high-PASI low, 12 mg QD vs placebo): 30.955
Odds Ratio, PASI75 response status (IL-17A high, 6 mg QD vs placebo, adjusted for baseline PASI score): 13.452
Odds Ratio, PASI75 response status (IL-17A high, 12 mg QD vs placebo, adjusted for baseline PASI score): 23.963
Odds Ratio for PASI75 response (IL-17A high, treatment arms combined vs placebo): 15.763
Odds Ratio, PASI75 response status (IL-17A low-PASI high, 6 mg QD vs placebo): 3.005
Odds Ratio, PASI75 response status (IL-17A low-PASI high, 12 mg QD vs placebo): 20.919
Odds Ratio, PASI75 response status (IL-17A low-PASI low, 6 mg QD vs placebo): 0.188
Odds Ratio, PASI75 response status (IL-17A low-PASI low, 12 mg QD vs placebo): 0.415
Odds Ratio, PASI75 response status (IL-17A low, 6 mg QD vs placebo, adjusted for baseline PASI score): 0.588
Odds Ratio for PASI75 response (IL-17A low, 6 mg QD vs placebo): 0.553
Odds Ratio, PASI75 response status (IL-17A low, 12 mg QD vs placebo, adjusted for baseline PASI score): 1.812
Odds Ratio for PASI75 response (IL-17A low, 12 mg QD vs placebo): 1.730
Odds Ratio for PASI75 response (IL-17A low, treatment arms combined vs placebo): 1.014
PASI75 response rate at week 16 (IL-19-high group, 6 mg QD and 12 mg QD vs placebo arm (FIG. 14)): higher in both 6 mg QD and 12 mg QD treatment arms compared to the response rate in the placebo arm
Odds Ratio (OR) for PASI75 response (IL-19-low-PASI high, 6 mg QD vs placebo): 1.244
Odds Ratio (OR) for PASI75 response (IL-19-low-PASI high, 12 mg QD vs placebo): 2.845
Odds Ratio (OR) for PASI75 response (IL-19-low-PASI low, 6 mg QD vs placebo): 0.321
Odds Ratio (OR) for PASI75 response (IL-19-low-PASI low, 12 mg QD vs placebo): 0.380
Odds Ratio (OR) for PASI75 response (IL-19 low, 6 mg QD vs placebo): 0.443
Odds Ratio (OR) for PASI75 response (IL-19 low, 12 mg QD vs placebo): 0.842
Odds Ratio for PASI75 response (IL-19 low, treatment arms combined vs placebo): 6.284
Interaction Term for PASI75 response (ratio of odds ratios) (adjusted for baseline PASI score, 6 mg QD vs placebo: BD2-high versus BD2-low): 13.742
Interaction Term for PASI75 response (ratio of odds ratios) (adjusted for baseline PASI score, 12 mg QD vs placebo: BD2-high versus BD2-low): 19.455
Odds Ratio for PASI75 response (adjusted for baseline PASI score, All patients, 6 mg QD vs placebo): 3.052
Odds Ratio for PASI75 response (adjusted for baseline PASI score, All patients, 12 mg QD vs placebo): 6.494
Odds Ratio for PASI75 response (adjusted for baseline PASI score, BD2-high, 6 mg QD vs placebo): 13.559
Odds Ratio for PASI75 response (adjusted for baseline PASI score, BD2-high, 12 mg QD vs placebo): 34.074
Odds Ratio for PASI75 response (adjusted for baseline PASI score, BD2-low, 6 mg QD vs placebo): 0.987
Odds Ratio for PASI75 response (adjusted for baseline PASI score, BD2-low, 12 mg QD vs placebo): 1.751
Odds Ratio (OR) for PASI75 response (adjusted for baseline PASI score, IL-19 low, 6 mg QD vs placebo): 0.476
Odds Ratio (OR) for PASI75 response (adjusted for baseline PASI score, IL-19 low, 12 mg QD vs placebo): 0.896
PASI75 response rate at week 16 (both CRP-high and CRP-low groups, 6 mg, 12 mg, placebo arms (FIG. 38)): the response rate was higher in the 6 mg deucravacitinib treatment arm than in the placebo arm, and the response rate was even higher in the 12 mg deucravacitinib treatment arm than in the 6 mg treatment arm
Interaction Term for PASI75 response (ratio of odds ratios) (treatment arms combined vs placebo: BD2 high versus BD2 low): 12.100
Interaction Term: treatment arm*CRP group, PASI75 (treatment arms combined vs placebo: CRP high versus CRP low): 1.903
Interaction Term for PASI75 response (ratio of odds ratios) (treatment arms combined vs placebo: IL-17A high versus IL-17A low): 15.541
